7 compounds from patent US11466011B2, “Compounds and their use as inhibitors of N-myristoyl transferase” (Imperial College Innovations Limited, priority 2015, dated 2022) can be followed below.

What is called EC50 is the concentration that produces a half-maximal response. Higher therefore signals weaker potency. A word on the IC50: it is the concentration that inhibits the measured activity by half. A low value points to inhibition by little substance. For orientation: melting point means the temperature of the solid-liquid transition.

Counter-ions that a name gives are not always drawn.

One data set relates to HeLa and/or BL-41 cells. In words: Metabolic activity assay (MTS assay) (d), HeLa and/or BL-41. The format is cell-based. The conditions noted are these: Homo sapiens, 72 h. The protocol: Example NMT inhibitors of the invention were tested for activity in an in vitro metabolic activity assay using human cell lines (HeLa and BL-41). Compounds having activity in inhibiting metabolic activity in the assay are expected to be useful as agents for preventing and/or treating cancer, by virtue of being inhibitors of human NMT1 and/or NMT2.
Hela cells were grown in DMEM media (supplemented with 10% FBS) and seeded in a 96-well plate 24 h prior to treatment. BL-41 cells were grown in RPMI-1640 media (supplemented with 10% FBS) and seeded directly before treatment. Cell suspensions were prepared by adjusting the cell density to the appropriate concentration (as stated in the table below) and 50 μL of the cell suspension was transferred to wells B-G in columns 2-11 of a 96-well plate.
100 μL of growth media containing 0.2% DMSO was added to wells B-G in columns 2 and 11 as positive controls and 100 μL of growth media containing Puromycin (3 μg/mL; final concentration in the plate 2 μg/mL) was added to wells B-G in column 3 as a negative control. 7 concentrations of inhibitor solution were prepared using example NMT inhibitors (same final percentage of DMSO, dilution factor=3 starting from 15 μM or 150 μM) and 100 μL of inhibitor solution was added to wells B-G in columns 4-10 (final concentration of example NMT inhibitor in the plate starting from 10 μM or 100 μM; total volume of the wells=150 μL).
After 72 h, 20 μL MTS reagent (Promega, prepared according to the supplier protocol) was added to each well of the 96-well plate. The plate was incubated at 37° C. (2 hours for HeLa cells and 4 hours for BL-41 cells) and absorbance was measured at 490 nm with a Spectra Max M2/M2e microplate reader. The average absorbance value of the negative control (Puromycin-treated cells) was subtracted from each value and the metabolic activity was calculated as a percentage relative to the positive control (DMSO-treated cells). EC50s were calculated using Grafit 7.0 (Erithacus Software Ltd, UK).
A general note: Tetrazolium dyes change colour on reduction, which living cells bring about.

Data set [1] relates to HRV16. The data set is described as follows: Rhinovirus production assay (e), virus titre (TCID50). The conditions noted are these: Enterovirus. Format: cell-based, human HeLa Ohio cell line. The protocol:
Example 30 of the invention was tested for activity in an in vitro rhinovirus production assay using the human HeLa Ohio cell line. Compounds having activity in inhibiting rhinovirus production in the assay are expected to be useful as agents for preventing and/or treating asthma or chronic obstructive pulmonary disease (COPD), by virtue of being inhibitors of human NMT1 and/or NMT2, which are thought to myristoylate rhinovirus capsid subunit VP4 and be essential for virus assembly. Hela Ohio cells were grown in growth media (DMEM supplemented with 10% FBS, 1% Sodium Bicarbonate and 25 mM Hepes) and seeded 24 h prior to infection in a 12-well plate at a cell density allowing to obtain 100% confluent cells (5.95×10^5 cells per well) the next day. Confluent cells were treated with different concentrations of inhibitor, as indicated in the table below, each in triplicate. The Example 30 inhibitor solution was prepared by serial dilutions in growth media and the DMSO control contained the same percentage of DMSO as in the solution with the highest concentration of inhibitor. […] Cells were then infected with HRV16 at an MOI of 1 in the presence of the inhibitor. The virus stock (2.492×10^7 PFU/ml) was diluted in growth media to obtain a virus solution at 5.95×10^5 PFU/ml. This virus dilution was used to dilute the inhibitor as previously described in order to obtain virus solutions with the inhibitor concentrations indicated in the table below. The cell media was as replaced by 1 ml per well of virus+inhibitor solution and the plate was incubated for 1 h at room temperature to allow virus adsorption onto the cells. The cells were then washed with PBS and the media was replaced with 1 ml per well of growth media+inhibitor, prepared as previously described. […] The media and cells form each well were then transferred to 1.5 ml tubes and centrifuged for 1 min at 16000×g to remove cell debris. The virus titres from the cleared supernatants were determined by measuring the 50% Tissue Culture Infective Dose (TCID50). Each sample was diluted in a series of 10-fold dilutions in TCID50 media (DMEM supplemented with 2% FBS, 1% Sodium Bicarbonate, 25 mM Hepes and 1% Penicillin-Streptomycin) and 50 μl of each of the dilutions 1/10 to 1/10^−8 were added onto a 96-well plate, in 6 replicates. HeLa Ohio cells at a cell density of 1×10^5 cells/ml in TCID50 media were then added to each well (150 μl per well). Some wells with cells alone (without sample) were included as control. […] The appearance of characteristic cytopathic effect, compared to control cells, was then assessed by observation of the plates on an inverted microscope and the virus titres were subsequently calculated by the method of Reed and Muench.

In data set [2] the test system is HRV16. In words: Rhinovirus production assay 2 (f), virus-induced cytopathic effect. The format is cell-based, human HeLa Ohio cell line. The conditions noted are these: 2 days post-infection, HeLa Ohio cells. The protocol: Examples 30, 35, 49 and 50 of the invention was tested for activity in a rhinovirus replication assay in the human HeLa Ohio cell line. Compounds having activity in inhibiting rhinovirus production in the assay are expected to be useful as agents for preventing and/or treating asthma or chronic obstructive pulmonary disease (COPD), by virtue of being inhibitors of human NMT1 and/or NMT2, which are thought to myristoylate rhinovirus capsid subunit VP4 and be essential for virus assembly. HeLa Ohio cells were grown in growth media (DMEM supplemented with 10% FBS, 1% Sodium Bicarbonate and 25 mM Hepes) and seeded 24 hours prior to infection in a 96-well plate at a cell density allowing to obtain 100% confluent cells (5.6×10^4 cells per well) the next day. Confluent cells were infected with HRV16 at an MOI of 0.05 in the presence of different concentrations of inhibitor, as indicated in the table below, each in duplicate. The virus stock (5.6×10^6 PFU/ml) was diluted in growth media to obtain a virus solution at 1.4×10^4 PFU/ml. This virus dilution was used to dilute the inhibitor by serial dilutions in order to obtain virus solutions with the inhibitor concentrations indicated in the table below. The DMSO control contained the same percentage of DMSO as in the solution with the highest concentration of inhibitor.
In general terms: Protection from cytopathic effect is a common read-out in antiviral testing.

A further data set relates to HeLa Ohio cells. In words: Cell viability of inhibitor-treated uninfected cells (assay (f)). Particulars: MTS 2 days post-treatment.
Data set [3] deals with T1, Leishmania major (Lm) N-myristoyl transferase (Leishmania major, UniProt Q4Q5S8).
T1 sequence (Q4Q5S8 1-421): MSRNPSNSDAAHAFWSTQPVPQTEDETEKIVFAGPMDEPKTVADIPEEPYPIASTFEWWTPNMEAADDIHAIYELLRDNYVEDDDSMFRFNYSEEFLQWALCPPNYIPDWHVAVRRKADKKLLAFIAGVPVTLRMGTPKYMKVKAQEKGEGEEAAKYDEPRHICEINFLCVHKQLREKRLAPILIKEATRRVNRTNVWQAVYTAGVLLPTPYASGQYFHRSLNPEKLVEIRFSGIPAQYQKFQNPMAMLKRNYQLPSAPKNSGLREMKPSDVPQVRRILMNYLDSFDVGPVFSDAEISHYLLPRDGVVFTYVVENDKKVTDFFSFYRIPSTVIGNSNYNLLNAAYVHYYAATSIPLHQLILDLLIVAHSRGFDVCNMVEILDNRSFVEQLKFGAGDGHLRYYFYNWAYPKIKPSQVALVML
In words: Fluorescence-based NMT assay (a), adapted version, LmNMT. The format is biochemical.

Data set [4] has as its target Leishmania donovani (Ld) N-myristoyl transferase (Leishmania donovani, UniProt D0AB09). The data set is described as follows: Fluorescence-based NMT assay (a), adapted version, LdNMT. The format is biochemical.

Sequence of Leishmania donovani (Ld) N-myristoyl transferase (D0AB09 entry or part of it): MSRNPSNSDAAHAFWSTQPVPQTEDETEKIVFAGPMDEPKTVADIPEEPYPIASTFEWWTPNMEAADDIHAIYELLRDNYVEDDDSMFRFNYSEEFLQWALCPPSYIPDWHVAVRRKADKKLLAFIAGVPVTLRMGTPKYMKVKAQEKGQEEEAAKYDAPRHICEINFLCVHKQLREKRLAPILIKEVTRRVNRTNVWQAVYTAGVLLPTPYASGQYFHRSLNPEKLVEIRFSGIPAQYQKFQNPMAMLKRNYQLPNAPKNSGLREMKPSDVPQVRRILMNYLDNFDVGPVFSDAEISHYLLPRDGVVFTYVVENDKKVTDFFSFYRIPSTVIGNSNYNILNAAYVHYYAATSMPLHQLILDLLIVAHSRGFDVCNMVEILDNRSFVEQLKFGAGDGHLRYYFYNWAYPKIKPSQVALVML

Take `CNCc1nn(C)c2ccc(-c3ccc(F)c(F)c3OCCc3c(C)nn(C)c3C)cc12` [Example 50, 1-(5-(3,4-difluoro-2-(2-(1,3,5-trimethyl-1H-pyrazol-4-yl)ethoxy)phenyl)-1-methyl-1H-indazol-3-yl)-N-methylmethanamine]: the EC50 was 1 to 100 nM with HeLa and/or BL-41 cells and 10 to 100 nM in the data set on HRV16 [1]. Further, in the data set with HRV16 [2], the “HRV16 production (virus-induced cytopathic effect, MTS)” value (“HRV16 production” for short) was “inhibit HRV16 production in a dose-dependent manner”. Also, the “cell viability of inhibitor-treated but uninfected cells” value in the data set on HeLa Ohio cells is recorded as “without affecting cell viability”.

Turning to `CN(C)Cc1n[nH]c2ccc(-c3ccc(F)cc3OCCc3cccnc3)cc12` [Example 8], the IC50 in data set [3] and in data set [4] was 1 to 100 nM throughout.

With `Cc1nn(C)c(C)c1CCOc1cc(F)ccc1-c1ccc2c(c1)c(CN)nn2C` (as salt: salt) [Example 31, (5-(4-fluoro-2-(2-(1,3,5-trimethyl-1H-pyrazol-4-yl)ethoxy)phenyl)-1-methyl-1H-indazol-3-yl)methanamine], the melting point lay in the range of 230 to 233 °C.

With `Cc1nn(C)c(C)c1CCOc1c(-c2ccc3c(c2)c(CN(C)C)nn3C)ccc(F)c1F` [Example 49], the EC50 lay within 1 to 100 nM with HeLa and/or BL-41 cells and 10 to 100 nM in the data set with HRV16 [1]. For the same compound, in the data set with HRV16 [2], the “HRV16 production” value is “inhibit HRV16 production in a dose-dependent manner”. In addition, the “cell viability of inhibitor-treated but uninfected cells” value in the data set on HeLa Ohio cells is “without affecting cell viability”.

`Cc1nn(C)c(C)c1CCOc1cc(F)ccc1-c1ccc2[nH]nc(CN(C)C)c2c1` [Example 7] showed an IC50 in data set [4] of 1 to 100 nM.

Turning to `CNCc1nn(C)c2ccc(-c3cccc(F)c3OCCc3c(C)nn(C)c3C)cc12` [Example 35, 1-(5-(3-fluoro-2-(2-(1,3,5-trimethyl-1H-pyrazol-4-yl)ethoxy)phenyl)-1-methyl-1H-indazol-3-yl)-N-methylmethanamine], the concentration for a half-maximal effect (EC50) with HRV16 [1] was in the range of 10 to 100 nM. Further, the “HRV16 production” value in the data set on HRV16 [2] is given as “inhibit HRV16 production in a dose-dependent manner”. Besides, the “cell viability of inhibitor-treated but uninfected cells” value with HeLa Ohio cells was “without affecting cell viability”.

For `Cc1nn(C)c(C)c1CCOc1c(F)cccc1-c1ccc2c(c1)c(CN(C)C)nn2C` [Example 30], the EC50 with HeLa and/or BL-41 cells was 1 to 100 nM; in the data set with HRV16 [1] it was 10 to 100 nM. Besides, the “HRV16 production” value in the data set on HRV16 [2] is listed as “inhibit HRV16 production in a dose-dependent manner”. Also, the “cell viability of inhibitor-treated but uninfected cells” value in the data set on HeLa Ohio cells is listed as “without affecting cell viability”.
